What was measured:
A549 lung carcinoma cell = assay: Cell viability, CCK-8 assay, A549; format: cell-based; conditions: Homo sapiens; A549 cells, 72 hr treatment; read-out: IC50 (after 72 hr treatment) A549
Experimental: (§1) The human cancer cell line (A549 lung carcinoma cell, Hela adenocarcinoma cell, U266 myeloma cell) was obtained from American Type Culture Collection (Manassas, Va. USA) and maintained in complete medium [RPMI. 1640 supplemented with heat-inactivated 10% FBS (USP, Austin, Tex., USA) and with 1% antibiotic-antimycotic solution (USP, Austin, Tex., USA)]. The cells were maintained in a humidified atmosphere of 5% CO2 and 95% air at 37° C., and cultured in T75 Flask (Nalge Nune International, Naperville, Ind., USA).
(§2) Cell viability was measured by a cell counting kit (CCK-8 assay, Dojindo, Tokyo, Japan), and the experimental procedure is based on the manufacturer's manual. The cells were cultured into 96-well plates at a density of 2×10^4 cells/well for 24 hours, followed by the treatment of the compounds of the present invention at various concentrations. […] Louis, Mo., USA)) was added to each well, and plates were incubated for additional 2 hours at 37° C. The absorbance of each well at 450 nm was measured with a reference at 630 nm using a Bio-Tek model ELx800™ microplate reader (Bio-Tek Instruments, Inc., Winooski, Vt., USA). The percentage of cell viability was calculated by following Mathematical Equation 1. […]

Hela adenocarcinoma cell = assay: Cell viability, CCK-8 assay, Hela; format: cell-based; conditions: Homo sapiens; Hela cells, 72 hr treatment; read-out: IC50 (after 72 hr treatment) Hela
Experimental: as §1, §2

U266 myeloma cell = assay: Cell viability, CCK-8 assay, U266; format: cell-based; conditions: Homo sapiens, U-266; U266 cells, 72 hr treatment; read-out: IC50 (after 72 hr treatment) U266
Experimental: as §1, §2

[1] = molecular target: T1, RAR-related orphan receptor α (RORα) (Homo sapiens, UniProt P35398); assay: Agonistic effect on RORα
T1 sequence (P35398 1-523): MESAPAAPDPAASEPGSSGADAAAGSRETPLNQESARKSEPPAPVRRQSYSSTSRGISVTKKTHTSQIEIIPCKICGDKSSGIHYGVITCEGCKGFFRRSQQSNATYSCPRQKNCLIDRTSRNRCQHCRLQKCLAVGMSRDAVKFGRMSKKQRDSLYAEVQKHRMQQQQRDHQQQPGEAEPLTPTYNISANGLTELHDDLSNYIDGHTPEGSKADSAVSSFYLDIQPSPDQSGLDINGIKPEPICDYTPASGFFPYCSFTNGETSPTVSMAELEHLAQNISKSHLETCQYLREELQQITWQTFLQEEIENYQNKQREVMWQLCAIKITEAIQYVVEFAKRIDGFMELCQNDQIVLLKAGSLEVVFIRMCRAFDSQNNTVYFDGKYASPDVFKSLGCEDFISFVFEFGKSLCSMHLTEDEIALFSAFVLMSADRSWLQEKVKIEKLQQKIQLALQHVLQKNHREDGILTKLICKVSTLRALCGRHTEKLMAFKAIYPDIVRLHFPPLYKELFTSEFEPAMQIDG

[2] = system: prostate specific antigen (PSA) as a target protein of androgen receptor; assay: Western blot of PSA expression in LNCaP cells (FIG. 1); format: cell-based; conditions: LNCaP androgen-dependent human prostate cancer cell line; compared with bicalutamide
[3] = system: androgen receptor (AR) target gene; assay: RT-PCR of androgen receptor target gene mRNA (FIG. 2); format: cell-based

IC50 (A549 lung carcinoma cell)	IC50 (Hela adenocarcinoma cell)	IC50 (U266 myeloma cell)	agonistic effect of activating RORα [1]	mRNA amount of NK3 transcription factor related, locus 1 (NKX3-1) [3]	mRNA amount of kallikrein-related peptidase 2 (KLK2) [3]	mRNA amount of prostate specific antigen (PSA) [3]	SMILES	anticancer activity based on the expression amount of PSA (western blot) [2]
380 nM	450 nM	460 nM	agonistic effect	–	–	–	COc1ccc2c(c1O)OC(C)(C)C=C2c1ccc(Cl)cc1C [Compound 95]	–
–	–	–	–	decreasing	decreasing	decreasing	O=C1C2C3=C(c4ccc(O)cc4OC34CCCC4)[C@@H](O)[C@H](c3ccccc3)C2C(=O)N1Cc1ccccc1 (some centres unmarked) [Compound 96]	almost analogous to that of bicalutamide

From patent US9120814B2, “Compounds with embedded benzopyran motif for core structures and preparation method thereof” (SNU R&DB FOUNDATION, priority 2006, dated 2015)
